Assay results as given in PubChem BioAssay (NCI).
“And” between values parts separate entries of the source, which are not always exact repeats. Equal entries are not always repeated.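 Assay format: 96-well plates, 48-hour exposure. GI50 marks 50% less growth. The concentration for full growth arrest is given as TGI.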

What was measured:
Assay in all cases: NCI tumour cell line growth inhibition, 48 h
[1] = tested on: XF 498 CNS
[2] = tested on: KM20L2 colon
[3] = tested on: DMS 273 small cell lung
[4] = tested on: DMS 114 small cell lung
[5] = tested on: LXFL 529 NSCLC
[6] = tested on: RXF-631 renal
[7] = tested on: M19-MEL melanoma
[8] = tested on: MDA-N
[9] = tested on: HOP-18 NSCLC
[10] = tested on: P388 leukemia
[11] = tested on: P388/ADR leukemia
[12] = tested on: SN12K1 renal

O=C(CCc1cc(-c2ccco2)n(-c2ccc([N+](=O)[O-])cc2[N+](=O)[O-])n1)Nc1ccccc1
TGI [1]: > 100 µM | TGI [2]: > 100 µM | TGI [3]: > 100 µM | TGI [4]: > 100 µM | TGI [5]: > 100 µM | TGI [6]: > 100 µM | TGI [7]: > 100 µM

COc1ccc(OC)c(/C=C/c2cnnc3ccccc23)c1
TGI [8]: 2.5 µM

COC(=O)c1cc(O)ccc1NC(=O)c1ccc(O)cc1
TGI [9]: > 100 µM | TGI [1]: > 100 µM | TGI [2]: > 100 µM | TGI [4]: > 100 µM | TGI [5]: > 100 µM | TGI [6]: > 100 µM | TGI [7]: > 100 µM

Cc1ccccc1C(C#N)/C(=N/NC(=O)C(=O)NN)C(=O)Nc1cccc(C(F)(F)F)c1 (centres undefined)
TGI [9]: > 100 µM | TGI [2]: > 100 µM | TGI [3]: > 100 µM | TGI [4]: > 100 µM | TGI [5]: > 100 µM | TGI [6]: > 100 µM | TGI [7]: > 100 µM

O=C(O)C#Cc1ccc([N+](=O)[O-])cc1
TGI [8]: > 100 µM

[O-][N+]1=C(c2ccccc2)COc2ccccc21
TGI [9]: > 100 µM | TGI [2]: > 100 µM | TGI [3]: > 100 µM | TGI [4]: > 100 µM | TGI [5]: > 100 µM | TGI [6]: > 100 µM | TGI [7]: > 100 µM

COC(=O)C12OCC34C(CC5C(C)=CC(=O)C(O)C5(C)C3C(O)C1O)OC(=O)C(OC(=O)CC(C)C)C24 (centres undefined)
GI50 [9]: 0.00907 µM and 0.0441 µM and 0.05 µM | TGI [9]: 0.0463 µM and 0.274 µM and 0.219 µM | GI50 [1]: 0.041 µM and 0.05 µM | GI50 [10]: 0.05 µM | GI50 [11]: 0.0657 µM | GI50 [12]: 0.000382 µM | TGI [12]: 0.00272 µM | GI50 [2]: 0.0479 µM and 0.05 µM | GI50 [4]: 0.133 µM | GI50 [5]: 0.00384 µM | TGI [5]: 0.0825 µM and 0.104 µM | TGI [8]: 0.00503 µM | GI50 [7]: < 0.0377 µM

O=c1[nH]c(C2CCCCC2)nc2cc(Cl)ccc12
TGI [2]: > 100 µM | TGI [3]: > 100 µM | TGI [4]: > 100 µM | TGI [5]: > 100 µM | TGI [7]: > 100 µM

COC(=O)/C(Cl)=C1/CC1COCc1ccccc1 (centres undefined)
TGI [1]: 58.4 µM | TGI [2]: > 100 µM | TGI [3]: 54.9 µM | TGI [4]: 81.2 µM | TGI [5]: 31.1 µM | TGI [7]: 93.2 µM

Cn1c2ccccc2c(=S)c2cc(NC(=O)CCCCC(=O)Nc3ccc4c(c3)c(=S)c3ccccc3n4C)ccc21
TGI [8]: > 100 µM

C/C(CN1C(=O)c2ccccc2C1=O)=N\NS(C)(=O)=O
TGI [9]: > 100 µM | TGI [1]: > 100 µM | TGI [2]: > 100 µM | TGI [3]: > 100 µM | TGI [4]: > 100 µM | TGI [5]: > 100 µM | TGI [7]: > 100 µM

COC(=O)C1CCc2nnc(-c3cccnc3)n21 (centres undefined)
TGI [9]: > 100 µM | TGI [2]: > 100 µM | TGI [3]: > 100 µM | TGI [4]: > 100 µM | TGI [5]: > 100 µM | TGI [6]: > 100 µM | TGI [7]: > 100 µM

C/C(CC(=O)Nc1ccc([N+](=O)[O-])cc1)=N/N=C(N)N
TGI [1]: > 100 µM | TGI [2]: > 100 µM | TGI [3]: > 100 µM | TGI [4]: > 100 µM | TGI [5]: > 100 µM | TGI [6]: > 100 µM | TGI [7]: > 100 µM

O=C1CSc2ccncc2N1
TGI [1]: > 100 µM | TGI [2]: > 100 µM | TGI [3]: > 100 µM | TGI [4]: > 100 µM | TGI [5]: > 100 µM | TGI [7]: > 100 µM

Cc1ccc(S(=O)(=O)NC(=O)Nc2nc(Cl)cc(Cl)n2)cc1
TGI [9]: > 100 µM | TGI [1]: > 100 µM | TGI [2]: > 100 µM | TGI [4]: > 100 µM | TGI [5]: > 100 µM | TGI [6]: > 100 µM | TGI [7]: > 100 µM

Cn1c(-c2ccccc2)c/c(=N\NS(C)(=O)=O)c2cc(S(=O)(=O)O)ccc21
TGI [9]: > 100 µM | TGI [1]: > 100 µM | TGI [2]: > 100 µM | TGI [3]: > 100 µM | TGI [4]: > 100 µM | TGI [5]: > 100 µM | TGI [7]: > 100 µM

O=[N+]([O-])c1ccc(C2N3CCCCC3[C@@H]3c4[nH]c5ccccc5c4CCN23)cc1 (some centres undefined)
TGI [9]: > 100 µM | TGI [1]: 33.9 µM | TGI [2]: 24.5 µM | TGI [3]: > 100 µM | TGI [4]: 22 µM | TGI [5]: > 100 µM | TGI [6]: > 100 µM | TGI [7]: 24.4 µM
